In experiment [1] the target is BRM (Homo sapiens, UniProt P51531). In words: ATPase catalytic activity assay (ADP-Glo), BRM. The settings on record: 30 nM BRM, 400 μM ATP; for IC50: BRM ATPase: IC50 (uM).
Experiment [2] deals with BRG-1 (Homo sapiens, UniProt P51532). The experiment is described as follows: ATPase catalytic activity assay (ADP-Glo), BRG-1. The settings on record: for Emax: 1 h, read-out: BRG1 Max % Inhibition, ADP-Glo, 30 nM BRG-1, 400 μM ATP.
Chain of BRG-1 (P51532 whole entry): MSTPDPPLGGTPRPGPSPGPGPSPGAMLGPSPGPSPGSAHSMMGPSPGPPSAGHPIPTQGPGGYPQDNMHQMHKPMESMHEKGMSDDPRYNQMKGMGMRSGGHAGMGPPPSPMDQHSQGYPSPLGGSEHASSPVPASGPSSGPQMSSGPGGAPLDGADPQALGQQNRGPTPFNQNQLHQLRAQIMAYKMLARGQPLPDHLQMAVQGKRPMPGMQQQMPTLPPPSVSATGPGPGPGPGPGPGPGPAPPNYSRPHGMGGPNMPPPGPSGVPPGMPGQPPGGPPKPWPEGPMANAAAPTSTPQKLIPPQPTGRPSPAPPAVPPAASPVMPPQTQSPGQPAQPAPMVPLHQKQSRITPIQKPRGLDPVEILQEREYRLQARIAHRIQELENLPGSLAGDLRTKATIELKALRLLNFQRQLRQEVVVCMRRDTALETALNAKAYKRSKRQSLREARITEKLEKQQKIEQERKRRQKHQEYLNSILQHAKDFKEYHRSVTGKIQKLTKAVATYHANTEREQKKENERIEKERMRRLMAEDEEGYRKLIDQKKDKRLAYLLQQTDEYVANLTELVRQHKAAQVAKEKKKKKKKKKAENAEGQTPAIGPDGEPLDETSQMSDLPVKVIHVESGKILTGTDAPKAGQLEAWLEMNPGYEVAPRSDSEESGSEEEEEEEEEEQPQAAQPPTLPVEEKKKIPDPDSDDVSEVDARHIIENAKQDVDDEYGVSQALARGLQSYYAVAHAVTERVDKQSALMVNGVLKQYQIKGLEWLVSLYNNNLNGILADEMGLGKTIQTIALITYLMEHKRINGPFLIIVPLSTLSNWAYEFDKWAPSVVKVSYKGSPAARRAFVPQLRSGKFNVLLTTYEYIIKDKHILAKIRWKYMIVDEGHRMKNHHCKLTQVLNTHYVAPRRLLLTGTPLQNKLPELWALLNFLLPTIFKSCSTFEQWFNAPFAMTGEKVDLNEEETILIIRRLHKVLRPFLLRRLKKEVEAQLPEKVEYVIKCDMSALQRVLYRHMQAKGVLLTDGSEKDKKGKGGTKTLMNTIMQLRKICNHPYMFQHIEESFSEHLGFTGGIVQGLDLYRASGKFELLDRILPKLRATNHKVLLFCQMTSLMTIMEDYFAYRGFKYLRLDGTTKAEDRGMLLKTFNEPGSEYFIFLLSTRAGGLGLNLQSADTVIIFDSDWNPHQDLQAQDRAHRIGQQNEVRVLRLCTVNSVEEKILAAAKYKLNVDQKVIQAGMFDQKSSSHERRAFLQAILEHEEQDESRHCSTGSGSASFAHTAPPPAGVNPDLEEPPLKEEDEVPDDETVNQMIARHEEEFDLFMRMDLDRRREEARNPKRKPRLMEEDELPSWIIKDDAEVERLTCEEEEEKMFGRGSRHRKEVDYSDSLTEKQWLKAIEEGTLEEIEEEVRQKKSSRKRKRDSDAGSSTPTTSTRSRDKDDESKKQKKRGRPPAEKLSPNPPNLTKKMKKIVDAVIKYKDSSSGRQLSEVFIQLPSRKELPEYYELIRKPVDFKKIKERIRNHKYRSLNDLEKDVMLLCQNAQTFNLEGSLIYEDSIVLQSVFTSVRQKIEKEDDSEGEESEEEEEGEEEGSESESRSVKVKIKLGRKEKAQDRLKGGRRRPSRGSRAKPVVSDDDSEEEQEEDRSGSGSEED

Chain of BRM (P51531 whole entry): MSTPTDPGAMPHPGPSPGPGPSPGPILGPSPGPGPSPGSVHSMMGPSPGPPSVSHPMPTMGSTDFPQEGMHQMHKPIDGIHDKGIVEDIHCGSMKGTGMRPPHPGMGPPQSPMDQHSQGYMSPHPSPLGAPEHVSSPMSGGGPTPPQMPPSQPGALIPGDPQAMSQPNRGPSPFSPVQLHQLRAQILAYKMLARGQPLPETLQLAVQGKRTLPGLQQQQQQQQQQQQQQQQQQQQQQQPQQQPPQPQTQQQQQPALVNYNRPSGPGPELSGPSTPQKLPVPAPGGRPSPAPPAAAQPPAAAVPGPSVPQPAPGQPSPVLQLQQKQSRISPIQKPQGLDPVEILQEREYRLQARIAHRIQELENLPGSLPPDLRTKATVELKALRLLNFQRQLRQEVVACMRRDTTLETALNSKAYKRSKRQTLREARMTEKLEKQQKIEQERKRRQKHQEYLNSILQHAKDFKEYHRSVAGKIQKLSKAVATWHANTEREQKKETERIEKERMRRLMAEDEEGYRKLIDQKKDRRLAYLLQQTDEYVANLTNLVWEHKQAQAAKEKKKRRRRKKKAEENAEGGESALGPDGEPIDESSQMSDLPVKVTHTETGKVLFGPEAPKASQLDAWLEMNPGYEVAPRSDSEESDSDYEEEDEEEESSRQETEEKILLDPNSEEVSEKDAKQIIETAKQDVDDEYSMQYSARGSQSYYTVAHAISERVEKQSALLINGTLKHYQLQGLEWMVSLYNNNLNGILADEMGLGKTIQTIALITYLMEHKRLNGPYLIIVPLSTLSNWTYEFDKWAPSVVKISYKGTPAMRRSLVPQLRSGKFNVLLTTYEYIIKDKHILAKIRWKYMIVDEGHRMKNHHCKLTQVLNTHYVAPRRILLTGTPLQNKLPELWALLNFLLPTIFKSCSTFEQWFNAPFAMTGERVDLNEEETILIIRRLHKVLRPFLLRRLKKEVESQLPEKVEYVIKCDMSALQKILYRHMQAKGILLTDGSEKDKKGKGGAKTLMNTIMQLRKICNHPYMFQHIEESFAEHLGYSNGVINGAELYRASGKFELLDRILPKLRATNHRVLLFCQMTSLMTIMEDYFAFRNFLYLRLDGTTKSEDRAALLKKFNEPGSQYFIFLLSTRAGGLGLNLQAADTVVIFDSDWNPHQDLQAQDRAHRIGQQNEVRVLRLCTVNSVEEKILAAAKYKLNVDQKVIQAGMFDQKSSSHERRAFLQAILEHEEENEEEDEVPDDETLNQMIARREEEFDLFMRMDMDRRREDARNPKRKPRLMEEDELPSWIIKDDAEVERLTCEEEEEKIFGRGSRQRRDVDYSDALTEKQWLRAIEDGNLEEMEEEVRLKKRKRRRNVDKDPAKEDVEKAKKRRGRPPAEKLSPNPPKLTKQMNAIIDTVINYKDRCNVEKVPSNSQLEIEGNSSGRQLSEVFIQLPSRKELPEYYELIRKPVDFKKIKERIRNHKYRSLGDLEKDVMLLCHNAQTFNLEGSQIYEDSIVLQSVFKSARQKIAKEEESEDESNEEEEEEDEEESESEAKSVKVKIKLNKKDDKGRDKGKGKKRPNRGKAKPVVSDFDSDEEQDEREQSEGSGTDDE

For `C[C@@]1(C#N)COCc2ccc(C(=O)NCc3cc4nc(-c5ccnc(N6CCC6)c5F)sc4cn3)cc21` [Compound 235], in experiment [1], the “BRM Max % Inhibition” value stood at 99% and the concentration for half-maximal inhibition (IC50) is less than 0.1 µM. For the same molecule, in experiment [2], the IC50 fell in the range of 100 to 500 nM and the Emax is 72%.
`COc1nn(C2COC2)cc1-c1ccc2cnc(CNC(=O)c3ccc4c(c3)[C@](C)(C#N)COC4)cc2n1` [Compound 236]: in experiment [1], the “BRM Max % Inhibition” value came to 100% and the concentration for half-maximal inhibition (IC50) is less than 0.1 µM. Also, in experiment [2], the IC50 lay in the range of 100 to 500 nM and the Emax amounted to 90%.
`O=C(NCc1cc2nc(-c3cncc(C4CC4)n3)ccc2cn1)c1cc(F)c2c(c1)[C@](F)(C(F)F)COC2` [Compound 237]: in experiment [1], the “BRM Max % Inhibition” value is on record as 100% and the 50% inhibitory concentration (IC50) is less than 0.1 µM. Moreover, in experiment [2], the IC50 was in the range of 100 to 500 nM and the Emax turned out to be 92%.
With `CN(C)c1cccc(-c2ccc3nnc(CNC(=O)c4ccc5c(c4)[C@](C)(F)COC5)cc3n2)n1` [Compound 238], in experiment [1], the “BRM Max % Inhibition” value stood at 100% and the IC50 is less than 0.1 µM. For the same molecule, in experiment [2], the IC50 is less than 100 nM and the Emax is 96%.
As for `C[C@@]1(F)COCc2ccc(C(=O)NCc3cc4nc(-c5cccc(N6CCCC6=O)n5)ccc4nn3)cc21` [Compound 239], in experiment [1], the “BRM Max % Inhibition” value is 101% and the IC50 is less than 0.1 µM. Further, in experiment [2], the IC50 is 100 to 500 nM and the Emax is 93%.
Take `C[C@@]1(F)COCc2ccc(C(=O)NCc3cc4nc(-c5cccc(C6CC6)n5)ccc4nn3)cc21` [Compound 240]: in experiment [1], the “BRM Max % Inhibition” value is on record as 101% and the IC50 was less than 0.1 µM. In experiment [2], the IC50 fell in the range of 100 to 500 nM and the Emax worked out at 89%.
Turning to `O=C(NCc1cc2nc(-c3cncc(C4CC4)n3)ccc2cn1)c1cnc2c(c1)[C@](F)(C(F)F)CCO2` [Compound 241], in experiment [1], the “BRM Max % Inhibition” value is reported as 97% and the IC50 lay within 0.1 to 0.5 µM. For the same molecule, in experiment [2], the IC50 was 500 to 1000 nM and the Emax was found to be 63%.
Regarding `C[C@@]1(C#N)COCc2ccc(C(=O)NCc3cc4nc(-c5ccccc5)sc4nn3)cc21` [Compound 242], in experiment [1], the “BRM Max % Inhibition” value was 94% and the IC50 lay in the range of 0.1 to 0.5 µM. Besides, in experiment [2], the IC50 fell in the range of 500 to 1000 nM and the Emax stood at 51%.
Consider `O=C(NCc1cc2nc(-c3cncc(C4CC4)n3)ccc2cn1)c1cnc2c(c1)[C@@](F)(C(F)F)CCO2` [Compound 243], for which, in experiment [1], the “BRM Max % Inhibition” value was found to be 81% and the concentration for half-maximal inhibition (IC50) was 0.1 to 0.5 µM. In experiment [2], the IC50 is more than 1000 nM and the Emax came to 9%.
For the molecule `C[C@@]1(F)COCc2ncc(C(=O)NCc3cc4nc(-c5ccnc(N6CCC6)n5)sc4cn3)cc21` [Compound 244], in experiment [1], the “BRM Max % Inhibition” value is on record as 88% and the IC50 is 0.1 to 0.5 µM. For the same molecule, in experiment [2], the 50% inhibitory concentration (IC50) is more than 1000 nM and the Emax is 25%.
For the molecule `C[C@@]1(F)COCc2ccc(C(=O)NCc3cc4nc(-c5ccnc(N6CCC6)n5)sc4cn3)cc21` [Compound 245], in experiment [1], the “BRM Max % Inhibition” value amounted to 96% and the IC50 lay in the range of 0.1 to 0.5 µM. Further, in experiment [2], the IC50 is 500 to 1000 nM and the Emax turned out to be 75%.
`O=C(NCc1cc2nc(-c3cncc(C4CC4)n3)ccc2cn1)c1cnc2c(c1)C(O)(C(F)F)COC2` (centres unmarked) [Compound 246]: in experiment [1], the “BRM Max % Inhibition” value was determined as 88% and the 50% inhibitory concentration (IC50) was in the range of 0.1 to 0.5 µM. In experiment [2], the IC50 is more than 1000 nM and the Emax stood at 23%.
On the same counts, the results for `C[C@@]1(C#N)COCc2ccc(C(=O)NCc3cc4c(nn3)CCN(c3cncc(N5CCC5)n3)C4)cc21` [Compound 247] are 93%, 0.1 to 0.5 µM, more than 1000 nM and 65%.
With `CN(C)c1cccc(-c2ccc3cnc(CNC(=O)c4ccc5c(c4)[C@](C)(F)COC5)cc3n2)n1` [Compound 248], in experiment [1], the “BRM Max % Inhibition” value is listed as 98% and the half-inhibitory concentration (IC50) was less than 0.1 µM. In experiment [2], the IC50 lay within 100 to 500 nM and the Emax was 100%.
On the same counts, the results for `C[C@@]1(F)COCc2ccc(C(=O)NCc3cc4nc(-c5cccc(C6(O)CCOC6)n5)ccc4cn3)cc21` (some centres unmarked) [Compound 249] are 97%, 0.1 to 0.5 µM, 500 to 1000 nM and 71%.
As to `COc1ccccc1N1CCc2cnc(CNC(=O)c3ccc4c(c3)[C@](C)(C#N)COC4)cc2C1` [Compound 250], in experiment [1], the “BRM Max % Inhibition” value amounted to 87% and the IC50 lay in the range of 0.1 to 0.5 µM. Besides, in experiment [2], the IC50 was more than 1000 nM and the Emax stood at 25%.
Regarding `COc1nn(C)cc1-c1ccc2cnc(CNC(=O)c3ccc4c(c3)[C@](C)(F)COC4)cc2c1` [Compound 251], in experiment [1], the “BRM Max % Inhibition” value is recorded as 100% and the IC50 was less than 0.1 µM. For the same molecule, in experiment [2], the IC50 fell in the range of 100 to 500 nM and the Emax is 91%.
For the molecule `C[C@]1(F)CCCc2ncc(C(=O)NCc3cc4nc(-c5cncc(C6CC6)n5)ccc4cn3)cc21` [Compound 252], in experiment [1], the “BRM Max % Inhibition” value was found to be 87% and the IC50 is 0.1 to 0.5 µM. Moreover, in experiment [2], the IC50 is more than 1000 nM and the Emax was found to be 33%.
On to `C[C@]1(C#N)CCOc2ncc(C(=O)NCc3cc4nc(-c5cncc(C6CC6)n5)ccc4cn3)cc21` [Compound 253], for which, in experiment [1], the “BRM Max % Inhibition” value was found to be 92% and the IC50 was 0.1 to 0.5 µM. Further, in experiment [2], the IC50 lay within 500 to 1000 nM and the Emax came out at 57%.
On the same counts, the results for `C[C@@]1(F)COCc2ccc(C(=O)NCc3cc4nc(-c5cccc(C(F)F)n5)ccc4nn3)cc21` [Compound 254] are 99%, less than 0.1 µM, 500 to 1000 nM and 77%.
With `C[C@@]1(F)COCc2ccc(C(=O)NCc3cc4nc(-c5cncc(C6CC6)n5)ccc4nn3)cc21` [Compound 255], in experiment [1], the “BRM Max % Inhibition” value was 100% and the IC50 is less than 0.1 µM. For the same molecule, in experiment [2], the IC50 was 100 to 500 nM and the Emax was found to be 90%.
In the case of `COc1ccccc1-c1cnc2cnc(CNC(=O)c3ccc4c(c3)[C@](C)(F)COC4)cc2n1` [Compound 256], in experiment [1], the “BRM Max % Inhibition” value came to 98% and the IC50 is less than 0.1 µM. Besides, in experiment [2], the IC50 lay in the range of 500 to 1000 nM and the Emax was 76%.
Regarding `C[C@@]1(F)COCc2ccc(C(=O)NCc3cc4cc(-c5ccnn(C6CC6)c5=O)ccc4cn3)cc21` [Compound 257], in experiment [1], the “BRM Max % Inhibition” value was determined as 92% and the IC50 lay in the range of 0.1 to 0.5 µM. Further, in experiment [2], the IC50 lay within 500 to 1000 nM and the Emax came to 65%.
As to `C[C@@]1(C#N)COCc2ccc(C(=O)NCc3cc4c(cn3)CCN(c3ccnc(N5CCC5)c3F)C4)cc21` [Compound 258], in experiment [1], the “BRM Max % Inhibition” value amounted to 96% and the IC50 was in the range of 0.1 to 0.5 µM. Further, in experiment [2], the IC50 was in the range of 100 to 500 nM and the Emax turned out to be 75%.
As to `C[C@@]1(F)COCc2ccc(C(=O)NCc3cc4nc(-c5ccnc(N6CCOCC6)n5)ccc4cn3)cc21` [Compound 259], in experiment [1], the “BRM Max % Inhibition” value was 99% and the IC50 is less than 0.1 µM. In experiment [2], the half-maximal inhibitory concentration (IC50) is 100 to 500 nM and the Emax amounted to 88%.
With `CNC(=O)c1ccc(-c2ccc3cnc(CNC(=O)c4ccc5c(c4)[C@](C)(F)COC5)cc3n2)cn1` [Compound 260], in experiment [1], the “BRM Max % Inhibition” value is 83% and the IC50 fell in the range of 0.1 to 0.5 µM. Besides, in experiment [2], the IC50 is more than 1000 nM and the Emax was determined as 42%.
On to `COc1nn(C)cc1-c1cnc2cnc(CNC(=O)c3ccc4c(c3)[C@](C)(C#N)COC4)cc2c1` [Compound 261], for which, in experiment [1], the “BRM Max % Inhibition” value is given as 94% and the IC50 is 0.1 to 0.5 µM. For the same molecule, in experiment [2], the IC50 is 500 to 1000 nM and the Emax amounted to 61%.
Turning to `C[C@@]1(C#N)COCc2ccc(C(=O)NCc3cc4cc(-c5cccc(C6(O)CC6)n5)ccc4cn3)cc21` [Compound 262], in experiment [1], the “BRM Max % Inhibition” value is on record as 102% and the IC50 was less than 0.1 µM. Further, in experiment [2], the 50% inhibitory concentration (IC50) is less than 100 nM and the Emax worked out at 99%.
As to `Cc1cc(-c2ccc3cnc(CNC(=O)c4ccc5c(c4)[C@](C)(C#N)COC5)cc3n2)n[nH]1` [Compound 264], in experiment [1], the “BRM Max % Inhibition” value was found to be 98% and the IC50 is 0.1 to 0.5 µM. Besides, in experiment [2], the IC50 was in the range of 500 to 1000 nM and the Emax worked out at 72%.
For `CO[C@H]1CCN(c2cncc(-c3ccc4cnc(CNC(=O)c5ccc6c(c5)[C@](C)(F)COC6)cc4c3)n2)C1` [Compound 265] the same measures were 104%, less than 0.1 µM, less than 100 nM and 99%.
For `CO[C@@H]1CCN(c2cncc(-c3ccc4cnc(CNC(=O)c5ccc6c(c5)[C@](C)(F)COC6)cc4c3)n2)C1` [Compound 266] the same measures were 103%, less than 0.1 µM, 100 to 500 nM and 96%.
For the molecule `CN1CCN(c2nccc(-c3ccc4cnc(CNC(=O)c5ccc6c(c5)[C@](C)(F)COC6)cc4n3)n2)CC1=O` [Compound 267], in experiment [1], the “BRM Max % Inhibition” value was determined as 103% and the IC50 was less than 0.1 µM. Besides, in experiment [2], the IC50 lay within 100 to 500 nM and the Emax worked out at 88%.
`C[C@@]1(F)COCc2ccc(C(=O)NCc3cc4nc(-c5ccnn(C6CC6)c5=O)ccc4cn3)cc21` [Compound 268]: in experiment [1], the “BRM Max % Inhibition” value worked out at 97% and the IC50 is 0.1 to 0.5 µM. Moreover, in experiment [2], the IC50 lay in the range of 500 to 1000 nM and the Emax was determined as 67%.
Turning to `C[C@@]1(F)COCc2c(F)cc(C(=O)NCc3cc4cc(-c5cncc(N6CCC6)n5)ccc4cn3)cc21` [Compound 269], in experiment [1], the “BRM Max % Inhibition” value amounted to 104% and the IC50 is less than 0.1 µM. For the same molecule, in experiment [2], the IC50 is 100 to 500 nM and the Emax worked out at 97%.
In the case of `C[C@@]1(C#N)COCc2c(F)cc(C(=O)NCc3cc4cc(-c5cncc(N6CCC6)n5)ccc4cn3)cc21` [Compound 270], in experiment [1], the “BRM Max % Inhibition” value is on record as 104% and the IC50 is less than 0.1 µM. In addition, in experiment [2], the IC50 was less than 100 nM and the Emax came to 98%.

These data come from patent US12441726B2, “Compounds and uses thereof” (Foghorn Therapeutics Inc., priority 2020, dated 2025).
